Results from patent US20230123334A1, “AMINO LIPID COMPOUND, PREPARATION METHOD THEREFOR, AND APPLICATION THEREOF” (SHENZHEN SHENXIN BIOTECHNOLOGY CO., LTD., priority 2020, published 2023).

Key:
Type in all cases: cell-based
Hela cells [1] = assay: Transfection of Hela cell line, DNA vectors; details: 75 ng plasmid DNA, GFP cells / total cells
Experimental: 1. The compound (0.01 mmol) prepared in Example 1 was dissolved in 1 mL of anhydrous ethanol. After ultrasonically dissolved, 10 μL of the resultant amino lipid solution in ethanol was taken and mixed with 5 μL of DOPE solution in ethanol (0.01 m), and then to the obtained mixture was added 35 μL of 0.2M sodium acetate buffer (pH 5.6), and 50 μL of liposome solution was prepared by vortex at a constant rotating speed for 30 s. 4 μL was taken from the 50 μL liposome solution and added to 46 μL of 0.02M sodium acetate buffer (pH 5.6), and the final liposome solution was formed by vortex at a constant rotating speed for 30 s. 5 μL was taken from the final liposome solution and mixed with 75 ng plasmid DNA (psin-EGFP-IRES-Puro, Clontech) dissolved in 5 μL of 0.02 M sodium acetate buffer, and was allowed to stay at room temperature for 30 min to form a lipid/DNA transfection complex.
2. 10 μL of the lipid/DNA transfection complex was incubated at room temperature for 30 min, followed by addition of 90 μL of fresh resuspended cells (3-5×10^4 cells) and mixing with a pipette. 100 μL of cells+lipid/DNA complex was transferred to separate wells of a 96-well culture plate immediately, and placed in an incubator containing 5% CO2 at 37° C.
3. Hoechst33258 (Invitrogen) was added at a final concentration of 0.2 μg/mL to the cells 20 to 24 hours after initial cell transfection, and cultured in darkness at 37° C. for 15 min. Afterwards, the cells were washed once with a PBS solution, and then added with medium for culture for 20 to 24 h.
4. The cells were placed in a high-throughput confocal microscope (Molecular Devices ImageXpress), and four visual fields of the image of the cells were captured for each well, and images at three laser wavelengths were captured for each sample: bright field images of cells (FIG. 2(a) and FIG. 2(b)), Hoechst-staining images showing total nuclei (FIG. 2(c) and FIG. 2(d)) and GFP images showing success in transfection with the plasmid DNA and the expression of GFP (FIG. 2(e) and FIG. 2(f)). MetaXpress software was used to separately count the cells in the Hoechst-staining images and GFP images, and then the number of cells expressing GFP was divided by the total number of nuclei to give the absolute cell transfection efficiency. The absolute transfection efficiency was calculated as follows: […]
(§1) Cell line: Hela cells (ATCC 35241)
(§2) Medium: DMEM supplemented with 10% fetal bovine serum (Invitrogen)
(§3) Screening: cell transfection on 96-well plates
(§4) Detection (readout): percentage of the number of GFP fluorescent cells relative to the total number of cells (the total number of cells was determined using nucleus dye Hoechst). Lipofectamine2000 (Invitrogen) was used as the positive control, according to the manufacturer's instructions.
(§5) Method: the experimental method was basically the same with Example 4.

Hela cells [2] = assay: Transfection of Hela cell line, mRNA vectors; details: 50 ng EGFP mRNA per well
Experimental: as §1, §2, §3
as §4, with “Hoechst). A commercially available liposome transfection reagent” for “Hoechst).”, “control group,” for “control,”
Method: the experimental method was basically the same with Example 4, and the mass of EGFP mRNA for transfection was 50 ng per well.

MCF7 cells [3] = assay: Transfection of MCF7 cell line, DNA vectors; set-up: concentration or dose not given beside the values; details: plasmid DNA, GFP cells / total cells
Experimental: (§6) Cell line: MCF7 cells (ATCC HTB-22)
Medium DMEM supplemented with […] fetal bovine serum
as §3
Detection (readout): percentage of the number of GFP fluorescent cells relative to the total number of cells (the total number of cells was determined using nucleus dye Hoechst). Lipofectamine2000 was used as the positive control, according to the manufacturer's instructions.
as §5

MCF7 cells [4] = assay: Transfection of MCF7 cell line, mRNA vectors; details: 50 ng EGFP mRNA per well
Experimental: as §6
Medium: DMEM supplemented with 10 fetal bovine serum (Invitrogen)
as §3
Detection (readout): percentage of the number of GFP fluorescent cells relative to the total number of cells (the total number of cells was determined using nucleus dye Hoechst). Lipofectamine2000 (Invitrogen) was used as the positive control.
Method: the experimental method was basically the same with Example 4, and the mass of EGFP mRNA (TriLink) for transfection was 50 ng per well.

Row | Compound | Absolute DNA transfection efficiency in Hela cells (Hela cells [1]) [%] | Absolute mRNA transfection efficiency in Hela cells (Hela cells [2]) [%] | Absolute DNA transfection efficiency in MCF7 cells (MCF7 cells [3]) [%] | Absolute mRNA transfection efficiency in MCF7 cells (MCF7 cells [4]) [%]
1 | CCCCCCCCCCCCNc1nc(NCCN2CCCC2)nc(SCCCCCCCC)n1 [Compound S8N12D3] | 8.8 | 8.9 | 13.7 | 20.7
2 | CCCCCCCCCNc1nc(NCCCN(C)C)nc(SCCCCCCCCC)n1 [Compound S9N9D6] | 30.3 | 30.3 | 11.0 | 30.7
3 | CCCCCCCCCCCCSc1nc(NCC2CCN(C)CC2)nc(SCCCCCCC)n1 [Compound S7S12D10] | 10.6 | 10.6 | 44.7 | 47.5
4 | CCCCCCCCCCCCCNc1nc(NCC2CCN(C)CC2)nc(SCCCCCCCC)n1 [Compound S8N13D10] | 9.5 | 9.5 | 41.7 | 23.0
5 | CCCCCCCCCNc1nc(NCCCN2CCOCC2)nc(SCCCCCCCCC)n1 [Compound S9N9D8] | 7.4 | 7.4 | 7.8 | 2.6
6 | CCCCCCCCCCCCNc1nc(NCCN2CCN(C)CC2)nc(SCCCCCCCC)n1 [Compound S8N12D5] | 20.8 | 20.8 | 29.2 | 19.7
7 | CCCCCCCCCCCCSc1nc(NCCCN2CCOCC2)nc(SCCCCCCC)n1 [Compound S7S12D8] | 5.4 | 5.4 | 11.5 | 24.0
8 | CCCCCCCCCCCCCNc1nc(NCCCN2CCN(C)CC2)nc(SCCCCCCCC)n1 [Compound S8N13D9] | 13.9 | 13.4 | 25.8 | 13.3
9 | CCCCCCCCCCCCSc1nc(NCCCN(C)C)nc(SCCCCCCC)n1 [Compound S7S12D6] | 5.8 | 5.8 | 52.1 | 19.1
10 | CCCCCCCCCCCSc1nc(NCCCCCCC)nc(NCCCN2CCN(C)CC2)n1 [Compound S11N7D9] | 8.3 | 8.3 | 5.8 | 5.1
11 | CCCCCCCCCCCSc1nc(NCCCN2CCOCC2)nc(SCCCCCCC)n1 [Compound S7S11D8] | 5.6 | 5.6 | 12.9 | 1.5
12 | CCCCCCCCCNc1nc(NCCN2CCCC2)nc(SCCCCCCCCC)n1 [Compound S9N9D3] | 27.4 | 27.4 | 8.6 | 12.1
13 | CCCCCCCCCCCCCNc1nc(NCCCN(C)C)nc(SCCCCCCCC)n1 [Compound S8N13D6] | 27.6 | 27.6 | 32.2 | 33.4
14 | CCCCCCCCCCCSc1nc(NCCN2CCCC2)nc(SCCCCCCC)n1 [Compound S7S11D3] | 4.8 | 4.8 | 6.4 | 6.7
15 | CCCCCCCCCCCCNc1nc(NCC2CCN(C)CC2)nc(SCCCCCCCC)n1 [Compound S8N12D10] | 22.6 | 22.6 | 40.6 | 23.1
16 | CCCCCCCCCNc1nc(NCCN2CCN(C)CC2)nc(SCCCCCCCCC)n1 [Compound S9N9D5] | 23.9 | 23.9 | 21.2 | 8.3
17 | CCCCCCCCCCCCCNc1nc(NCCN2CCN(C)CC2)nc(SCCCCCCCC)n1 [Compound S8N13D5] | 14.7 | 14.7 | 24.5 | 9.2
18 | CCCCCCCCCCCCSc1nc(NCCN2CCN(C)CC2)nc(SCCCCCCC)n1 [Compound S7S12D5] | 4.9 | 4.9 | 27.1 | 33.6
19 | CCCCCCCCCCCSc1nc(NCCCCCCC)nc(NCCN2CCN(C)CC2)n1 [Compound S11N7D5] | 11.4 | 11.4 | 4.7 | 3.4
20 | CCCCCCCCCCCCNc1nc(NCCCN2CCOCC2)nc(SCCCCCCCC)n1 [Compound S8N12D8] | 8.4 | 8.4 | 2.1 | 0.3
21 | CCCCCCCCCCCSc1nc(NCCCN(C)C)nc(SCCCCCCC)n1 [Compound S7S11D6] | 14.5 | 14.5 | 38.1 | 26.1
22 | CCCCCCCCCCCSc1nc(NCCCCCCC)nc(NCCCN2CCOCC2)n1 [Compound S11N7D8] | 6.7 | 6.7 | 1.7 | 3.2
23 | CCCCCCCCCCCSc1nc(NCC2CCN(C)CC2)nc(SCCCCCCC)n1 [Compound S7S11D10] | 19.7 | 19.7 | 33.8 | 22.2
24 | CCCCCCCCCNc1nc(NCC2CCN(C)CC2)nc(SCCCCCCCCC)n1 [Compound S9N9D10] | 17.6 | 17.6 | 38.9 | 29.6
25 | CCCCCCCCCNc1nc(NCCCN2CCN(C)CC2)nc(SCCCCCCCCC)n1 [Compound S9N9D9] | 25.6 | 25.6 | 42.3 | 21.0
